These results are taken from patent US10624917B2, “Compositions and methods useful for treating or preventing liver diseases or disorders, and promoting weight loss” (YALE UNIVERSITY, priority 2014, dated 2020).

Where no end group is shown, it is not given here.

The assay deals with IL-1β production in murine peritoneal macrophages (PECs). As to the kind of experiment: IL-1β secretion (ELISA) by primed, ATP-pulsed peritoneal macrophages (PECs). The assay is classed as cell-based, mouse. The protocol:
FIGS. 1A-1J illustrate the finding that adenosine stimulates IL-1β production in NLRP3 inflammasome-dependent manner. Murine peritoneal macrophages (PECs) were obtained from wild type (WT) mice (FIGS. 1A-1D, 1F-1I), Il1r−/− (FIG. 1E) or Nlrp3−/−, ASC−/−, P2xr7−/−, or Caspase-1−/− mice (FIG. 1J) and were primed with LPS for 16 hours. FIG. 1A: This was followed by treatment for 1 hour with adenosine (Ad, 100 μM), adenosine deaminase inhibitor (EHNA, 10 μM), adenosine deaminase (ADA, 10 U ml^−1), ATP diphosphohydrolase (Apyrase, 10 U ml^−1), or erythro-9-(2-hydroxy-3-nonyl) adenine (EHNA, 10 μM) (FIGS. 1B, 1F-1J)). Pan adenosine agonist (NECA, 1 μM, 10 μM) (FIGS. 1C, 1E), or (FIGS. 1D, 1I) by NECA for 1 and 6 hours, and were then pulsed with ATP for 20 min. Enzyme-linked immunosobent assay (ELISA) of IL-1β, TNF-α, IL-10 and IFN-γ secretion were measured in cell supernatants after pulsing with ATP for 5 hours (FIGS. 1A, 1C-1E, 1J) or indicated time-course (FIGS. 1B, 1G-1I). LDH assay was performed after pulsing with ATP as indicated time-course (FIG. 1F). Data are expressed as the mean±SD from at least three independent experiments. *p<0.05 determined by Student's t-test.
C57BL/6 mice were purchased from the National Cancer Institute. ASC−/−, Caspase-1−/−, Nlrp3−/− and P2xr7−/− mice have been described (Rock et al., 2010, Annu Rev Immunol. 28:321-42). A2ora2a flox/flox mice and LysMcre mice were purchased from Jackson Laboratories. HIF-1a flox/flox mice were kindly provided by Dr. Ruslan M Medzhitov (Yale University). 7- to 12-week-old males with a variety of genetic manipulations were used in most experiments. The number of mice in each experimental group was chosen based on previous experience with these experimental models. Mouse peritoneal macrophages (PECs) were isolated by peritoneal lavage 3 days after intraperitoneal injection of 4% thioglycollate solution (B2551, Fluka,). Cells were plated at the density of 3×10^6 cells in 12-well dishes and non-adherent cells were removed after 3 h. Cells primed overnight with 100 ng/ml LPS or 10 ng/ml Pam3CSK4 were treated with various chemicals and followed stimulation. Cells were cultured in DMEM medium complemented with 10% FBS, penicillin/streptomycin and L-glutamine. Mouse bone marrow derived macrophages were isolated from bone marrow cells, and were differentiated for 7 days in complete RPMI-1640 medium supplemented with 2 mM L-glutamine, 100 U/ml penicillin, 100 μg/ml streptomycin, 50 μM 2-mercaptoethanol (all from Invitrogen), 10% heat-inactivated FBS and 20 ng/ml M-CSF (PeproTech). Kupffer cells (KC) were isolated by the density gradient separation of Optiprep (Sigma), and then plates were gently washed and media was replenished after seeding cells for 2 hours to raise KC purity.
Primed PECs were both pulsed for 20 min with 5 mM ATP or 10 μM nigericin, and left untreated until culture supernatants were collected. Secretion of IL-1β was determined by enzyme-linked immunoabsorbent assay (ELISA; R&D Systems).

[1] abbreviates: LPS-primed PECs pulsed with ATP.

For `Nc1ncnc2c1ncn2[C@@H]1O[C@H](CO)[C@@H](O)[C@H]1O` [adenosine], the IL-1β production result by setting is: under setting [1], “significantly increased”; (in the absence of either LPS or ATP) “did not result in any detectable IL-1β”. Regarding “PKI 14-22 amide (SGRTGRRNA-NH2; UniProt P61925 14-22, looked up, fragment)”, the “IL-1β production in response to NECA and CGS21680” value (with PKA inhibition) is on record as “significantly reduced”.

B1: adenosine deaminase: Adenosine deaminase obtained from Worthington Biochemical corporation (protein, UniProt P56658 2-363, looked up)
Adenosine deaminase: AQTPAFNKPKVELHVHLDGAIKPETILYYGRKRGIALPADTPEELQNIIGMDKPLSLPEFLAKFDYYMPAIAGCREAVKRIAYEFVEMKAKDGVVYVEVRYSPHLLANSKVEPIPWNQAEGDLTPDEVVSLVNQGLQEGERDFGVKVRSILCCMRHQPSWSSEVVELCKKYREQTVVAIDLAGDETIEGSSLFPGHVKAYAEAVKSGVHRTVHAGEVGSANVVKEAVDTLKTERLGHGYHTLEDATLYNRLRQENMHFEVCPWSSYLTGAWKPDTEHPVVRFKNDQVNYSLNTDDPLIFKSTLDTDYQMTKNEMGFTEEEFKRLNINAAKSSFLPEDEKKELLDLLYKAYGMPSPASAEQCL
As for B1, the IL-1β production result under setting [1] is recorded as “significant reduction”.
